Measured values taken from PubChem BioAssay AID2060490 (Molecular Pharmacology Branch, DTP, NCI, 2025).

System: 885512-296-R-J2-PDC complex spheroid viability
Assay: Anticancer human tumor 885512-296-R-J2-PDC patient-derived breast carcinoma cell line growth inhibition [GQUAD]
Conditions: for IC50: curve of first compound; for viability, T/C: stronger effect = lower value
Method in brief: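 Multi-cell-type spheroids of tumor cells with HUVEC and mesenchymal stem cells, treated with drug combinations. Concentrations descend in half-log steps from near clinical Cmax, or from 10 microM where Cmax is unknown; viability read-out.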

[1] = second compound 0.0316 µM, first compound 0.0316 µM
[2] = second compound 0.0316 µM, first compound 0.1 µM
[3] = second compound 0.0316 µM, first compound 0.316 µM
[4] = second compound 0.0316 µM, first compound 1 µM
[5] = second compound 0.0316 µM, first compound 3.16 µM
[6] = second compound 0.0316 µM, first compound 10 µM
[7] = second compound 0.1 µM, first compound 0.0316 µM
[8] = second compound 0.1 µM, first compound 0.1 µM
[9] = second compound 0.1 µM, first compound 0.316 µM
[10] = second compound 0.1 µM, first compound 1 µM
[11] = second compound 0.1 µM, first compound 3.16 µM
[12] = second compound 0.1 µM, first compound 10 µM
[13] = second compound 0.316 µM, first compound 0.0316 µM
[14] = second compound 0.316 µM, first compound 0.1 µM
[15] = second compound 0.316 µM, first compound 0.316 µM
[16] = second compound 0.316 µM, first compound 1 µM
[17] = second compound 0.316 µM, first compound 3.16 µM
[18] = second compound 0.316 µM, first compound 10 µM
[19] = second compound 1 µM, first compound 0.0316 µM
[20] = second compound 1 µM, first compound 0.1 µM
[21] = second compound 1 µM, first compound 0.316 µM
[22] = second compound 1 µM, first compound 1 µM
[23] = second compound 1 µM, first compound 3.16 µM
[24] = second compound 1 µM, first compound 10 µM
[25] = second compound 3.16 µM, first compound 0.0316 µM
[26] = second compound 3.16 µM, first compound 0.1 µM
[27] = second compound 3.16 µM, first compound 0.316 µM
[28] = second compound 3.16 µM, first compound 1 µM
[29] = second compound 3.16 µM, first compound 3.16 µM
[30] = second compound 3.16 µM, first compound 10 µM
[31] = second compound 10 µM, first compound 0.0316 µM
[32] = second compound 10 µM, first compound 0.1 µM
[33] = second compound 10 µM, first compound 0.316 µM
[34] = second compound 10 µM, first compound 1 µM
[35] = second compound 10 µM, first compound 3.16 µM
[36] = second compound 10 µM, first compound 10 µM
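Further: spheroids exposed to the compounds for one week.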
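Wherever viability, T/C is given: percent of tumor spheroid viability relative to DMSO vehicle control wells.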

Q: `O=C(NO)c1cnc(N2CCN(S(=O)(=O)c3ccc4ccccc4c3)CC2)nc1` + CN(C)c1ccc(Nc2c3ccc(NC(=O)CCN4CCCC4)cc3nc3cc(NC(=O)CCN4CCCC4)ccc23)cc1 was tested. Which IC50 (second compound 0.0316 µM) did it give?
A: Its IC50 is 136 nM.

Q: And the IC50 (second compound 0.1 µM)?
A: The IC50 was 160 nM.

Q: And the IC50 (second compound 0.316 µM)?
A: Its IC50 is 152 nM.

Q: And the IC50 (second compound 1 µM)?
A: The IC50 was 149 nM.

Q: What about the IC50 (second compound 3.16 µM) of the same compound?
A: The IC50 was 100 nM.

Q: What about the IC50 (second compound 10 µM) of the same compound?
A: Its IC50 is less than 31.6 nM.

Q: What about the viability, T/C [1] of the same compound?
A: Its viability, T/C is 89.6%.

Q: And the viability, T/C [2]?
A: The viability, T/C was 61.1%.

Q: What about the viability, T/C [3] of the same compound?
A: Its viability, T/C is 20%.

Q: And the viability, T/C [4]?
A: The viability, T/C was 3.35%.

Q: What about the viability, T/C [5] of the same compound?
A: Its viability, T/C is 0.33%.

Q: And the viability, T/C [6]?
A: The viability, T/C was 0.17%.

Q: What about the viability, T/C [7] of the same compound?
A: Its viability, T/C is 90.8%.

Q: And the viability, T/C [8]?
A: The viability, T/C was 67.4%.

Q: And the viability, T/C [9]?
A: The viability, T/C was 25.1%.

Q: And the viability, T/C [10]?
A: Its viability, T/C is 3.87%.

Q: And the viability, T/C [11]?
A: The viability, T/C was 0.15%.

Q: What about the viability, T/C [12] of the same compound?
A: The viability, T/C was 0.11%.

Q: What about the viability, T/C [13] of the same compound?
A: Its viability, T/C is 84.1%.

Q: What about the viability, T/C [14] of the same compound?
A: Its viability, T/C is 63.9%.

Q: What about the viability, T/C [15] of the same compound?
A: Its viability, T/C is 25.8%.

Q: What about the viability, T/C [16] of the same compound?
A: Its viability, T/C is 3.96%.

Q: What about the viability, T/C [17] of the same compound?
A: Its viability, T/C is 0.19%.

Q: What about the viability, T/C [18] of the same compound?
A: Its viability, T/C is 0.24%.

Q: What about the viability, T/C [19] of the same compound?
A: Its viability, T/C is 74.8%.

Q: What about the viability, T/C [20] of the same compound?
A: Its viability, T/C is 65.2%.

Q: And the viability, T/C [21]?
A: The viability, T/C was 21.4%.

Q: What about the viability, T/C [22] of the same compound?
A: Its viability, T/C is 5.44%.

Q: What about the viability, T/C [23] of the same compound?
A: Its viability, T/C is 0.13%.

Q: What about the viability, T/C [24] of the same compound?
A: The viability, T/C was 0.56%.

Q: And the viability, T/C [25]?
A: Its viability, T/C is 60.2%.

Q: And the viability, T/C [26]?
A: The viability, T/C was 50.6%.

Q: And the viability, T/C [27]?
A: The viability, T/C was 21.1%.

Q: And the viability, T/C [28]?
A: The viability, T/C was 5.9%.

Q: And the viability, T/C [29]?
A: Its viability, T/C is 0.29%.

Q: And the viability, T/C [30]?
A: Its viability, T/C is 0.11%.

Q: And the viability, T/C [31]?
A: The viability, T/C was 15.4%.

Q: And the viability, T/C [32]?
A: The viability, T/C was 15.4%.

Q: And the viability, T/C [33]?
A: The viability, T/C was 9.93%.

Q: What about the viability, T/C [34] of the same compound?
A: Its viability, T/C is 3.09%.

Q: And the viability, T/C [35]?
A: Its viability, T/C is 0.66%.

Q: What about the viability, T/C [36] of the same compound?
A: The viability, T/C was 0.31%.

Q: How did the IC50 (second compound 0.0316 µM) turn out when `CC1COCCN1c1cc(C2(S(C)(=N)=O)CC2)nc(-c2ccnc3[nH]ccc23)n1` (centres undefined) + Cc1[nH]c2ccc(F)cc2c1-c1nc2c3cccnc3c3ncccc3c2[nH]1 was run?
A: Its IC50 is 838 nM.

Q: What about the IC50 (second compound 0.1 µM) of the same compound?
A: The IC50 was 868 nM.

Q: And the IC50 (second compound 0.316 µM)?
A: The IC50 was 555 nM.

Q: And the IC50 (second compound 1 µM)?
A: Its IC50 is 147 nM.

Q: And the IC50 (second compound 3.16 µM)?
A: Its IC50 is less than 31.6 nM.

Q: What about the IC50 (second compound 10 µM) of the same compound?
A: The IC50 was less than 31.6 nM.

Q: What about the viability, T/C [1] of the same compound?
A: The viability, T/C was 103%.

Q: And the viability, T/C [2]?
A: Its viability, T/C is 105%.

Q: And the viability, T/C [3]?
A: The viability, T/C was 85.6%.

Q: And the viability, T/C [4]?
A: The viability, T/C was 44.9%.

Q: And the viability, T/C [5]?
A: Its viability, T/C is 7.65%.

Q: And the viability, T/C [6]?
A: Its viability, T/C is 5.02%.

Q: And the viability, T/C [7]?
A: Its viability, T/C is 125%.

Q: What about the viability, T/C [8] of the same compound?
A: The viability, T/C was 108%.

Q: And the viability, T/C [9]?
A: Its viability, T/C is 92.1%.

Q: What about the viability, T/C [10] of the same compound?
A: Its viability, T/C is 46.1%.

Q: What about the viability, T/C [11] of the same compound?
A: Its viability, T/C is 6.65%.

Q: And the viability, T/C [12]?
A: The viability, T/C was 3.91%.

Q: What about the viability, T/C [13] of the same compound?
A: The viability, T/C was 102%.

Q: And the viability, T/C [14]?
A: Its viability, T/C is 94.2%.

Q: And the viability, T/C [15]?
A: Its viability, T/C is 72%.

Q: And the viability, T/C [16]?
A: The viability, T/C was 28%.

Q: What about the viability, T/C [17] of the same compound?
A: Its viability, T/C is 4.02%.

Q: What about the viability, T/C [18] of the same compound?
A: The viability, T/C was 4.62%.

Q: What about the viability, T/C [19] of the same compound?
A: The viability, T/C was 80.4%.

Q: And the viability, T/C [20]?
A: Its viability, T/C is 55.6%.

Q: What about the viability, T/C [21] of the same compound?
A: Its viability, T/C is 37%.

Q: And the viability, T/C [22]?
A: Its viability, T/C is 5.55%.

Q: What about the viability, T/C [23] of the same compound?
A: Its viability, T/C is 3.67%.

Q: What about the viability, T/C [24] of the same compound?
A: Its viability, T/C is 3.74%.

Q: And the viability, T/C [25]?
A: The viability, T/C was 10.4%.

Q: What about the viability, T/C [26] of the same compound?
A: The viability, T/C was 5.19%.

Q: And the viability, T/C [27]?
A: The viability, T/C was 3.19%.

Q: What about the viability, T/C [28] of the same compound?
A: Its viability, T/C is 1.97%.

Q: And the viability, T/C [29]?
A: The viability, T/C was 1.51%.

Q: And the viability, T/C [30]?
A: The viability, T/C was 1.38%.

Q: What about the viability, T/C [31] of the same compound?
A: Its viability, T/C is 1.16%.

Q: And the viability, T/C [32]?
A: Its viability, T/C is 1.65%.

Q: What about the viability, T/C [33] of the same compound?
A: The viability, T/C was 1.5%.

Q: And the viability, T/C [34]?
A: The viability, T/C was 1.57%.

Q: What about the viability, T/C [35] of the same compound?
A: Its viability, T/C is 1.94%.

Q: What about the viability, T/C [36] of the same compound?
A: The viability, T/C was 1.43%.
